Test system: solid tumors
Experiment: Phase I/II study P001, i.v. trabedersen: all patients, MTD and DLT
Type: in vivo, human
Source text: P001 is a completed Phase I/II dose escalation study. Primary objective is the determination of the MTD as well as the DLT of 2 cycles as core treatment and up to 8 optional extension cycles of trabedersen administered i.v. for 4 or 7 d every other week, as described in the following. The study followed a classical cohort design with 3 evaluable patients per cohort. Patients treated with the 1st schedule received trabedersen continuously for 7 d, followed by a treatment-free interval of 7 d for each treatment cycle (7-d-on, 7-d-off). After the MTD had been reached for this schedule, a 2nd schedule of 4 d trabedersen administration, followed by a treatment-free interval of 10 d for each treatment cycle was started (4-d-on, 10-d-off). In this treatment schedule the MTD has not been reached.
Primary objective of the study is the determination of the maximum tolerated dose (MTD) as well as the dose limiting toxicity (DLT) of two cycles of Trabedersen administered every other week. Secondary objectives include safety and tolerability, pharmacokinetic profile and potential antitumor activity of intravenous Trabedersen treatment.
Trabedersen was administered as i.v. continuous infusion for 4 or 7 days every other week via an implanted subcutaneous port system connected to a portable pump and with a flow rate of 0.8 mL/h. The core treatment consisted of 2 treatment cycles. Up to 8 optional extension cycles were administered in case of clinical benefit.
The dose escalation followed a classical cohort design with at least 3 and up to 6 patients per cohort receiving Trabedersen. The starting dose was chosen based on the Lowest-Observed-Adverse-Effect Level (LOAEL) determined in monkeys as the most relevant species. […] The Data and Safety Monitoring Board (DSMB) regularly reviewed available safety and efficacy data before each escalation step. Generally, if patients of one cohort had tolerated the therapy, the next cohort received the next higher dose. Toxicity was assessed based on National Cancer Institute-Common Toxicity Criteria (NCI-CTC, version 2). A DLT was defined as an at least possibly related, medically important adverse event, of NCI-CTC grade 3 or 4, a worsening by ≥2 grades from baseline for renal or hepatic toxicities, a worsening by ≥3 grades from baseline for other laboratory parameters, or other toxicities considered dose-limiting by the investigator. If more than 2 patients of a cohort had DLTs, the next lower dose was defined as MTD. Dose-escalation had to be stopped if MTD was reached.
The overall survival is calculated for all patients as the survival time from the onset of treatment with study medication to death due to any cause and analyzed with the Kaplan-Meier method.
Altogether 33 patients with advanced pancreatic cancer, malignant melanoma, or colorectal cancer were enrolled for dose escalation (Table 15). Patients treated in the first treatment schedule received Trabedersen continuously for 7 days, followed by a treatment-free interval of 7 days for each treatment cycle (7-days-on, 7-days-off).
After the MTD had been reached in the 7-days-on, 7-days-off schedule, a second dose escalation was started using a modified treatment schedule with 4 days Trabedersen administration, followed by a treatment-free interval of 10 days for each treatment cycle (4-days-on, 10-days-off).

[1] = 4-days-on, 10-days-off, 140 mg/m^2/day

In the case of “cggcatgtct attttgta (antisense CGGCATGTCTATTTTGTA; chemistry not given here) [OT-101, synthetic antisense oligodeoxynucleotide against TGF-beta2]”, the “Dose limiting toxicities (NCI-CTC grade)” value [1] is reported as “— 1 gastrointestinal bleeding (3)”, the “Median Overall Survival, All patients” value [1] is reported as 14.5 months and the “Median Overall Survival, All patients” value (4-days-on, 10-days-off, 140 mg/m^2/day (additional patients)) is reported as 6.0^2 months. The “Median Overall Survival, All patients” value (4-days-on, 10-days-off, 190 mg/m^2/day) was 9.3 months, the “Median Overall Survival, All patients” value (4-days-on, 10-days-off, 250 mg/m^2/day) was 9.8 months and the “Median Overall Survival, All patients” value (4-days-on, 10-days-off, 330 mg/m^2/day) was 3.0 months. For the same substance, the MTD (4-days-on, 10-days-off, 140 to 330 mg/m^2/day) was “without reaching an MTD”, the MTD (7-days-on, 7-days-off schedule) was 160 mg/m^2/day and the “Median Overall Survival, All patients” value (7-days-on, 7-days-off, 40 mg/m^2/day) was 6.9 months. The “Median Overall Survival, All patients” value (7-days-on, 7-days-off, 80 mg/m^2/day) was 9.2 months, the “Median Overall Survival, All patients” value (7-days-on, 7-days-off, 160 mg/m^2/day) was 2.9 months and the “Median Overall Survival, All patients” value (7-days-on, 7-days-off, 240 mg/m^2/day) was 6.5 months. For the same substance, the “Dose limiting toxicities (NCI-CTC grade)” value (7-days-on, 7-days-off, 240 mg/m^2/day, listed as Trabedersen) was 2 thrombocytopenias, 1 exanthema and — 1 exanthema (3) and — 2 thrombocytopenias (3).
